PubChem BioAssay AID1963986 (Molecular Pharmacology Branch, DTP, NCI, 2024)

System: 171881-019-R-J1-PDC tumor spheroid viability
Test: Anticancer human tumor 171881-019-R-J1-PDC patient-derived invasive breast carcinoma cell line growth inhibition [PI3K]
Conditions: spheroids with HUVEC and MSC; for IC50: curve of first compound; for viability, T/C: stronger effect = lower value
Summary of the method: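 Viability of mixed-cell spheroids was determined after exposure to pairwise combinations, one partner being inavolisib, alpelisib, duvelisib or copanlisib. Highest tested concentration matched clinical Cmax where known and 10 microM where not, descending in half-log steps.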

[1] = second compound 0.00316 µM, first compound 0.0316 µM
[2] = second compound 0.00316 µM, first compound 0.1 µM
[3] = second compound 0.00316 µM, first compound 0.316 µM
[4] = second compound 0.00316 µM, first compound 1 µM
[5] = second compound 0.00316 µM, first compound 3.16 µM
[6] = second compound 0.00316 µM, first compound 10 µM
[7] = second compound 0.01 µM, first compound 0.0316 µM
[8] = second compound 0.01 µM, first compound 0.1 µM
[9] = second compound 0.01 µM, first compound 0.316 µM
[10] = second compound 0.01 µM, first compound 1 µM
[11] = second compound 0.01 µM, first compound 3.16 µM
[12] = second compound 0.01 µM, first compound 10 µM
[13] = second compound 0.0316 µM, first compound 0.0316 µM
[14] = second compound 0.0316 µM, first compound 0.1 µM
[15] = second compound 0.0316 µM, first compound 0.316 µM
[16] = second compound 0.0316 µM, first compound 1 µM
[17] = second compound 0.0316 µM, first compound 3.16 µM
[18] = second compound 0.0316 µM, first compound 10 µM
[19] = second compound 0.1 µM, first compound 0.0316 µM
[20] = second compound 0.1 µM, first compound 0.1 µM
[21] = second compound 0.1 µM, first compound 0.316 µM
[22] = second compound 0.1 µM, first compound 1 µM
[23] = second compound 0.1 µM, first compound 3.16 µM
[24] = second compound 0.1 µM, first compound 10 µM
[25] = second compound 0.316 µM, first compound 0.0316 µM
[26] = second compound 0.316 µM, first compound 0.1 µM
[27] = second compound 0.316 µM, first compound 0.316 µM
[28] = second compound 0.316 µM, first compound 1 µM
[29] = second compound 0.316 µM, first compound 3.16 µM
[30] = second compound 0.316 µM, first compound 10 µM
[31] = second compound 1 µM, first compound 0.0316 µM
[32] = second compound 1 µM, first compound 0.1 µM
[33] = second compound 1 µM, first compound 0.316 µM
[34] = second compound 1 µM, first compound 1 µM
[35] = second compound 1 µM, first compound 3.16 µM
[36] = second compound 1 µM, first compound 10 µM
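Also: spheroids exposed to compound for 7 days before viability read.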
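For viability, T/C in this document: 100% = DMSO vehicle-treated spheroids.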

## C=CC(=O)N1CCN(c2nc(=O)n(-c3c(C)ccnc3C(C)C)c3nc(-c4c(O)cccc4F)c(F)cc23)C(C)C1 (stereo unspecified) + CC(Nc1ccc2c(c1)OCCn1cc(N3C(=O)OCC3C(F)F)nc1-2)C(N)=O
Second compound 0.00316 µM
  IC50: 9110 nM
Second compound 0.01 µM
  IC50: 7320 nM
Second compound 0.0316 µM
  IC50: 3970 nM
Second compound 0.1 µM
  IC50: < 31.6 nM
Second compound 0.316 µM
  IC50: < 31.6 nM
Second compound 1 µM
  IC50: < 31.6 nM
[1]
  viability, T/C: 96.8%
[2]
  viability, T/C: 90.1%
[3]
  viability, T/C: 92.8%
[4]
  viability, T/C: 93.1%
[5]
  viability, T/C: 88.5%
[6]
  viability, T/C: 46.6%
[7]
  viability, T/C: 79.5%
[8]
  viability, T/C: 84.9%
[9]
  viability, T/C: 78.5%
[10]
  viability, T/C: 84.6%
[11]
  viability, T/C: 79%
[12]
  viability, T/C: 39.1%
[13]
  viability, T/C: 52.7%
[14]
  viability, T/C: 56.2%
[15]
  viability, T/C: 52.1%
[16]
  viability, T/C: 57.7%
[17]
  viability, T/C: 54.7%
[18]
  viability, T/C: 31.7%
[19]
  viability, T/C: 37.6%
[20]
  viability, T/C: 37.8%
[21]
  viability, T/C: 40.2%
[22]
  viability, T/C: 36.3%
[23]
  viability, T/C: 39.2%
[24]
  viability, T/C: 22.1%
[25]
  viability, T/C: 26.1%
[26]
  viability, T/C: 29.2%
[27]
  viability, T/C: 27.8%
[28]
  viability, T/C: 30%
[29]
  viability, T/C: 26.7%
[30]
  viability, T/C: 12.6%
[31]
  viability, T/C: 20.2%
[32]
  viability, T/C: 21.7%
[33]
  viability, T/C: 20.7%
[34]
  viability, T/C: 22.6%
[35]
  viability, T/C: 20.7%
[36]
  viability, T/C: 10.7%

## CC(Cn1ccc(-c2ccc(C#N)c(Cl)c2)n1)NC(=O)c1cc(C(C)O)[nH]n1 (stereo unspecified) + CC(Nc1ccc2c(c1)OCCn1cc(N3C(=O)OCC3C(F)F)nc1-2)C(N)=O
Second compound 0.00316 µM
  IC50: > 10000 nM
Second compound 0.01 µM
  IC50: > 10000 nM
Second compound 0.0316 µM
  IC50: 4210 nM
Second compound 0.1 µM
  IC50: < 31.6 nM
Second compound 0.316 µM
  IC50: < 31.6 nM
Second compound 1 µM
  IC50: < 31.6 nM
[1]
  viability, T/C: 74.5%
[2]
  viability, T/C: 85%
[3]
  viability, T/C: 92%
[4]
  viability, T/C: 93.9%
[5]
  viability, T/C: 88.5%
[6]
  viability, T/C: 54.3%
[7]
  viability, T/C: 75.1%
[8]
  viability, T/C: 80.9%
[9]
  viability, T/C: 78.6%
[10]
  viability, T/C: 80.5%
[11]
  viability, T/C: 83.4%
[12]
  viability, T/C: 57.7%
[13]
  viability, T/C: 50.2%
[14]
  viability, T/C: 57.4%
[15]
  viability, T/C: 54.4%
[16]
  viability, T/C: 53.7%
[17]
  viability, T/C: 59.2%
[18]
  viability, T/C: 35.1%
[19]
  viability, T/C: 41.1%
[20]
  viability, T/C: 36.2%
[21]
  viability, T/C: 38.5%
[22]
  viability, T/C: 39.8%
[23]
  viability, T/C: 39%
[24]
  viability, T/C: 27.3%
[25]
  viability, T/C: 26.7%
[26]
  viability, T/C: 26.5%
[27]
  viability, T/C: 25.8%
[28]
  viability, T/C: 27%
[29]
  viability, T/C: 25.8%
[30]
  viability, T/C: 19.4%
[31]
  viability, T/C: 19.6%
[32]
  viability, T/C: 20.6%
[33]
  viability, T/C: 19.7%
[34]
  viability, T/C: 20.8%
[35]
  viability, T/C: 19.1%
[36]
  viability, T/C: 14.3%

## Cn1nccc1Nc1nccc(-c2ccn(C(CO)c3ccc(Cl)c(F)c3)c(=O)c2)n1 (stereo unspecified) + CC(Nc1ccc2c(c1)OCCn1cc(N3C(=O)OCC3C(F)F)nc1-2)C(N)=O
Second compound 0.00316 µM
  IC50: 265 nM
Second compound 0.01 µM
  IC50: 113 nM
Second compound 0.0316 µM
  IC50: < 31.6 nM
Second compound 0.1 µM
  IC50: < 31.6 nM
Second compound 0.316 µM
  IC50: < 31.6 nM
Second compound 1 µM
  IC50: < 31.6 nM
[1]
  viability, T/C: 92.5%
[2]
  viability, T/C: 67.2%
[3]
  viability, T/C: 46.7%
[4]
  viability, T/C: 33.7%
[5]
  viability, T/C: 22%
[6]
  viability, T/C: 19.2%
[7]
  viability, T/C: 69.6%
[8]
  viability, T/C: 53.9%
[9]
  viability, T/C: 30.6%
[10]
  viability, T/C: 27.4%
[11]
  viability, T/C: 18.2%
[12]
  viability, T/C: 15%
[13]
  viability, T/C: 47.4%
[14]
  viability, T/C: 37.9%
[15]
  viability, T/C: 23.1%
[16]
  viability, T/C: 17.1%
[17]
  viability, T/C: 11.8%
[18]
  viability, T/C: 9.67%
[19]
  viability, T/C: 33.5%
[20]
  viability, T/C: 23.3%
[21]
  viability, T/C: 15.9%
[22]
  viability, T/C: 9.87%
[23]
  viability, T/C: 7.9%
[24]
  viability, T/C: 5.46%
[25]
  viability, T/C: 21.6%
[26]
  viability, T/C: 16.9%
[27]
  viability, T/C: 10.6%
[28]
  viability, T/C: 6.63%
[29]
  viability, T/C: 4.45%
[30]
  viability, T/C: 2.82%
[31]
  viability, T/C: 18.3%
[32]
  viability, T/C: 13.9%
[33]
  viability, T/C: 7.66%
[34]
  viability, T/C: 4.72%
[35]
  viability, T/C: 3.76%
[36]
  viability, T/C: 2.26%
